Assay: Clinical PET kinetic profile: brain uptake, washout, metabolism
Assay type: in vivo, human
Protocol: Clinical evaluation of 3-(3-[18F]-Fluoroazetidin-1-yl)-8-methylbenzo[4,5]imidazo[1,2-a]pyridine (Compound 8) as a PET radioligand for imaging tau protein deposition in patients with AD or other neurodegenerative disorders is conducted in healthy volunteers. AD patients, or Chronic Traumatic Encephalopathy (CTE) subjects, by completion of one or more PET scans with Compound 8. Dynamic PET imaging is acquired on a Siemens ECAT EXACT HR+ over 150 minutes following Compound 8 or [18F]AV-1451 injection (0-60 and 90-150 minute imaging segments). Compound 8 or [18F]AV-1451 scans are acquired similarly in two imaging sessions. A brain MRI is also obtained. PET and MRI images are aligned and normalized, and ATLAS-based volumes of interest (VOI) are applied to the dynamic PET series. Compound 8 or [18F]AV-1451 are evaluated in terms of kinetic profile as well as target region to cerebellum standardized uptake value ratio (SUVr between 100-120 min) between healthy volunteers and AD or CTE subjects.

SMILES: Cc1ccc2nc3cc(N4CC([18F])C4)ccn3c2c1 [Compound 8, 3-(3-[18F]-fluoroazetidin-1-yl)-8-methylbenzo[4,5]imidazo[1,2-a]pyridine]
- intact parent remaining (60 min post injection, n=7): 5±3%
- max SUV relative to that of [18F]AV-1451 (healthy volunteers and AD subjects): ~50 % higher
- peak brain uptake (human subjects, dynamic PET): ~8 SUV

Source: patent US10301308B2, “Azetidine derivatives for tau imaging” (Eli Lilly and Company, priority 2015, dated 2019)
